The target of the assay is T1, N-terminal HiBiT tagged BCL-XL (Homo sapiens, UniProt Q07817).
T1 construct: expressed in transfected cells; host or cells: HT-1080 (ATCC CCL-121) cells stably transduced with lentivirus pLV-UBC-N-HiBiT-BCL-XL-PGK-puro
Briefly: HiBiT based degradation assay. Format: cell-based. The note with it: HT1080 cells expressing N-terminal HiBiT tagged BCL-XL, BCL-XL level normalized with DMSO control. From the text:
Human BCL-XL protein coding open reading frame fused with N-terminal HiBiT coding sequence was synthesized from Integrated DNA Technologies (IDT). Next, N-HiBiT-BCL-XL sequence was cloned into pLV-UBC-PGK-Puro, a lentivirus plasmid purchased from Vectorbuilder, to generate pLV-UBC-N-HiBiT-BCL-XL-PGK-puro. Lentiviral particles were generated from Lenti-X™ 293T cells (Clontech) by co-transfection of pLV-UBC-N-HiBiT-BCL-XL-PGK-puro plasmids and lentiviral packaging plasmid mix (Cellecta). HT-1080 [HT1080](ATCC CCL-121) cells were infected with the lentivirus, and HT1080 cells stably integrated with the lentiviral vectors were established by incubation with […] puromycin (Thermofisher).
HT1080 cells expressing N-terminal HiBiT tagged BCL-XL were dispensed into a 384-well plate pre-spotted with compounds at varying concentrations. Three thousand cells were seeded into each well in 40 μL of RPMI 1640 media. […] After incubation, luminescence was read on a PHERAstar FSX Plate Reader (BMG). BCL-XL degradation at each indicated concentration was normalized with the DMSO control. The BCL-XL degradation curves were plotted using a four-parameter logistic model. For compounds displaying hook effects, the curve fitting was performed using the bottom point of the hook curves (i.e., the point of Ymin) as the bottom plateau to calculate EC50.
(In general: HiBiT is a short tag that completes a luciferase, so light tracks the accessible tagged protein.)

Results on 19 compounds are retold here after patent US20250282771A1, “TETRAHYDROISOQUINOLINE HETEROBIFUNCTIONAL BCL-XL DEGRADERS” (Treeline Biosciences, Inc., priority 2022, published 2025).

T1 sequence (Q07817 whole entry): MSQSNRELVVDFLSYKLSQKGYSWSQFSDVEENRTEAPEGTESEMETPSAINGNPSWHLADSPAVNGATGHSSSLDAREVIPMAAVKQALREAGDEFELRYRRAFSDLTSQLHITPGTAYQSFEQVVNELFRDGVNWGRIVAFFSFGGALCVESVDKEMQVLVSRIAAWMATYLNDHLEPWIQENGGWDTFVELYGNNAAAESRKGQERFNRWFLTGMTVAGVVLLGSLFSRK

Regarding `Cc1c(OCCCN2CCN(c3cc4c(cc3F)C(=O)N(C3CCC(=O)NC3=O)C4=O)CC2)cccc1-c1ccc(N2CCc3cccc(C(=O)Nc4nc5ccccc5s4)c3C2)nc1C(=O)O` (stereo not drawn) [Compound 101], the “Ymin (6 h)” value was “B (50% ≤ Ymin < 70%)”.
On the same count and under the same terms, under `Cc1c(OCCCCCCCCCC(=O)N2CCN(c3cc4c(cc3F)C(=O)N(C3CCC(=O)NC3=O)C4=O)CC2)cccc1-c1ccc(N2CCc3cccc(C(=O)Nc4nc5ccccc5s4)c3C2)nc1C(=O)O` (stereo not drawn) [Compound 102] stands “A (Ymin < 50%)”; under `O=C1CCC(N2C(=O)c3cc(F)c(N4CCN(CCCCCCCOc5cccc(-c6ccc(N7CCc8cccc(C(=O)Nc9nc%10ccccc%10s9)c8C7)nc6C(=O)O)c5)CC4)cc3C2=O)C(=O)N1` (stereo not drawn) [Compound 103], “B (50% ≤ Ymin < 70%)”.
For the compound `Cc1c(OCCCCCCCN2CCN(c3cc4c(cc3F)C(=O)N(C3CCC(=O)NC3=O)C4=O)CC2)cccc1-c1ccc(N2CCc3cccc(C(=O)Nc4nc5ccccc5s4)c3C2)nc1C(=O)O` (stereo not drawn) [Compound 104, 6-(8-(benzo[d]thiazol-2-ylcarbamoyl)-3,4-dihydroisoquinolin-2(1H)-yl)-3-(3-((7-(4-(2-(2,6-dioxopiperidin-3-yl)-6-fluoro-1,3-dioxoisoindolin-5-yl)piperazin-1-yl)heptyl)oxy)-2-methylphenyl)picolinic acid], the “Ymin (6 h)” value is listed as “B (50% ≤ Ymin < 70%)” and the “Ymin (24 h)” value is “B (50% ≤ Ymin < 70%)”.
Take `Cc1c(OCCCCCCCCCN2CCN(c3cc4c(cc3F)C(=O)N(C3CCC(=O)NC3=O)C4=O)CC2)cccc1-c1ccc(N2CCc3cccc(C(=O)Nc4nc5ccccc5s4)c3C2)nc1C(=O)O` (stereo not drawn) [Compound 105]: the “Ymin (6 h)” value was “A (Ymin < 50%)”.
`Cc1c(OCCC2CCN(CC(=O)N3CCN(c4cc5c(cc4F)C(=O)N(C4CCC(=O)NC4=O)C5=O)CC3)CC2)cccc1-c1ccc(N2CCc3cccc(C(=O)Nc4nc5ccccc5s4)c3C2)nc1C(=O)O` (stereo not drawn) [Compound 106, 6-[8-(1,3-Benzothiazol-2-ylcarbamoyl)-3,4-dihydro-1H-isoquinolin-2-yl]-3-[3-[2-[1-[2-[4-[2-(2,6-dioxo-3-piperidyl)-6-fluoro-1,3-dioxo-isoindolin-5-yl]piperazin-1-yl]-2-oxo-ethyl]-4-piperidyl]ethoxy]-2-methyl-phenyl]pyridine-2-carboxylic acid]: the “Ymin (6 h)” value was “B (50% ≤ Ymin < 70%)”.
The same measure, in the same setting: next, `Cc1c(OCCCCCCCCCCCN2CCN(c3cc4c(cc3F)C(=O)N(C3CCC(=O)NC3=O)C4=O)CC2)cccc1-c1ccc(N2CCc3cccc(C(=O)Nc4nc5ccccc5s4)c3C2)nc1C(=O)O` (stereo not drawn) [Compound 107]: “B (50% ≤ Ymin < 70%)”; `Cc1c(OCCCCCCCCN2CCN(c3cc4c(cc3F)C(=O)N(C3CCC(=O)NC3=O)C4=O)CC2)cccc1-c1ccc(N2CCc3cccc(C(=O)Nc4nc5ccccc5s4)c3C2)nc1C(=O)O` (stereo not drawn) [Compound 108]: “B (50% ≤ Ymin < 70%)”; `Cc1c(OCCCCCCCCC(=O)N2CCN(c3cc4c(cc3F)C(=O)N(C3CCC(=O)NC3=O)C4=O)CC2)cccc1-c1ccc(N2CCc3cccc(C(=O)Nc4nc5ccccc5s4)c3C2)nc1C(=O)O` (stereo not drawn) [Compound 109]: “B (50% ≤ Ymin < 70%)”.
Consider `Cc1c(Oc2ccc(CCCN3CCN(c4cc5c(cc4F)C(=O)N(C4CCC(=O)NC4=O)C5=O)CC3)cc2)cccc1-c1ccc(N2CCc3cccc(C(=O)Nc4nc5ccccc5s4)c3C2)nc1C(=O)O` (stereo not drawn) [Compound 110, 6-[8-(1,3-Benzothiazol-2-ylcarbamoyl)-3,4-dihydro-1H-isoquinolin-2-yl]-3-[3-[4-[3-[4-[2-(2,6-dioxo-3-piperidyl)-6-fluoro-1,3-dioxo-isoindolin-5-yl]piperazin-1-yl]propyl]phenoxy]-2-methyl-phenyl]pyridine-2-carboxylic acid], for which the “Ymin (6 h)” value is on record as “B (50% ≤ Ymin < 70%)” and the “Ymin (24 h)” value was “B (50% ≤ Ymin < 70%)”.
Take `Cc1c(O[C@H]2CC[C@H](CCC(=O)N3CCN(c4cc5c(cc4F)C(=O)N(C4CCC(=O)NC4=O)C5=O)CC3)CC2)cccc1-c1ccc(N2CCc3cccc(C(=O)Nc4nc5ccccc5s4)c3C2)nc1C(=O)O` (stereo partly drawn) [Compound 111a, 6-(8-(benzo[d]thiazol-2-ylcarbamoyl)-3,4-dihydroisoquinolin-2(1H)-yl)-3-(3-(((1r,4r)-4-(3-(4-(2-(2,6-dioxopiperidin-3-yl)-6-fluoro-1,3-dioxoisoindolin-5-yl)piperazin-1-yl)-3-oxopropyl)cyclohexyl)oxy)-2-methylphenyl)picolinic acid]: the “Ymin (6 h)” value is recorded as “B (50% ≤ Ymin < 70%)” and the “Ymin (24 h)” value is on record as “B (50% ≤ Ymin < 70%)”.
Consider `Cc1c(O[C@H]2CC[C@H](CCCN3CCN(c4cc5c(cc4F)C(=O)N(C4CCC(=O)NC4=O)C5=O)CC3)CC2)cccc1-c1ccc(N2CCc3cccc(C(=O)Nc4nc5ccccc5s4)c3C2)nc1C(=O)O` (stereo partly drawn) [Compound 112a, 6-(8-(benzo[d]thiazol-2-ylcarbamoyl)-3,4-dihydroisoquinolin-2(1H)-yl)-3-(3-(((1s,4r)-4-(3-(4-(2-(2,6-dioxopiperidin-3-yl)-6-fluoro-1,3-dioxoisoindolin-5-yl)piperazin-1-yl)propyl)cyclohexyl)oxy)-2-methylphenyl)picolinic acid], for which the “Ymin (6 h)” value is “B (50% ≤ Ymin < 70%)” and the “Ymin (24 h)” value is given as “C (Ymin ≥ 70%)”.
With `Cc1c(OCC2CC3(CCN(CC(=O)N4CCN(c5cc6c(cc5F)C(=O)N(C5CCC(=O)NC5=O)C6=O)CC4)CC3)C2)cccc1-c1ccc(N2CCc3cccc(C(=O)Nc4nc5ccccc5s4)c3C2)nc1C(=O)O` (stereo not drawn) [Compound 113, 6-[8-(1,3-benzothiazol-2-ylcarbamoyl)-3,4-dihydro-1H-isoquinolin-2-yl]-3-[3-[[7-[2-[4-[2-(2,6-dioxo-3-piperidyl)-6-fluoro-1,3-dioxo-isoindolin-5-yl]piperazin-1-yl]-2-oxo-ethyl]-7-azaspiro[3.5]nonan-2-yl]methoxy]-2-methyl-phenyl]pyridine-2-carboxylic acid], the “Ymin (6 h)” value was “B (50% ≤ Ymin < 70%)” and the “Ymin (24 h)” value is “B (50% ≤ Ymin < 70%)”.
Consider `Cc1c(OCCCCCCCC(=O)N2CCN(c3cc4c(cc3F)C(=O)N(C3CCC(=O)NC3=O)C4=O)CC2)cccc1-c1ccc(N2CCc3cccc(C(=O)Nc4nc5ccccc5s4)c3C2)nc1C(=O)O` (stereo not drawn) [Compound 114], for which the “Ymin (6 h)” value was “B (50% ≤ Ymin < 70%)”.
For the compound `Cc1c(OCCCCCCN2CCN(c3cc4c(cc3F)C(=O)N(C3CCC(=O)NC3=O)C4=O)CC2)cccc1-c1ccc(N2CCc3cccc(C(=O)Nc4nc5ccccc5s4)c3C2)nc1C(=O)O` (stereo not drawn) [Compound 115], the “Ymin (6 h)” value was “C (Ymin ≥ 70%)” and the “Ymin (24 h)” value is “B (50% ≤ Ymin < 70%)”.
With `Cc1c(OCCC2CCN(CCN3CCN(c4cc5c(cc4F)C(=O)N(C4CCC(=O)NC4=O)C5=O)CC3)CC2)cccc1-c1ccc(N2CCc3cccc(C(=O)Nc4nc5ccccc5s4)c3C2)nc1C(=O)O` (stereo not drawn) [Compound 116, 6-[8-(1,3-benzothiazol-2-ylcarbamoyl)-3,4-dihydro-1H-isoquinolin-2-yl]-3-[3-[2-[1-[2-[4-[2-(2,6-dioxo-3-piperidyl)-6-fluoro-1,3-dioxo-isoindolin-5-yl]piperazin-1-yl]ethyl]-4-piperidyl]ethoxy]-2-methyl-phenyl]pyridine-2-carboxylic acid], the “Ymin (24 h)” value is given as “A (Ymin < 50%)”.
Turning to `Cc1c(Oc2ccc(CCCCN3CCN(c4cc5c(cc4F)C(=O)N(C4CCC(=O)NC4=O)C5=O)CC3)cc2)cccc1-c1ccc(N2CCc3cccc(C(=O)Nc4nc5ccccc5s4)c3C2)nc1C(=O)O` (stereo not drawn) [Compound 117, 6-(8-(benzo[d]thiazol-2-ylcarbamoyl)-3,4-dihydroisoquinolin-2(1H)-yl)-3-(3-(4-(4-(4-(2-(2,6-dioxopiperidin-3-yl)-6-fluoro-1,3-dioxoisoindolin-5-yl)piperazin-1-yl)butyl)phenoxy)-2-methylphenyl)picolinic acid], the “Ymin (6 h)” value is given as “B (50% ≤ Ymin < 70%)” and the “Ymin (24 h)” value is reported as “B (50% ≤ Ymin < 70%)”.
On to `Cc1c(OCCCC2CCN(CCN3CCN(c4cc5c(cc4F)C(=O)N(C4CCC(=O)NC4=O)C5=O)CC3)CC2)cccc1-c1ccc(N2CCc3cccc(C(=O)Nc4nc5ccccc5s4)c3C2)nc1C(=O)O` (stereo not drawn) [Compound 118, 6-(8-(benzo[d]thiazol-2-ylcarbamoyl)-3,4-dihydroisoquinolin-2(1H)-yl)-3-(3-(3-(1-(2-(4-(2-(2,6-dioxopiperidin-3-yl)-6-fluoro-1,3-dioxoisoindolin-5-yl)piperazin-1-yl)ethyl)piperidin-4-yl)propoxy)-2-methylphenyl)picolinic acid], for which the “Ymin (24 h)” value is recorded as “A (Ymin < 50%)”.
For the compound `Cc1c(Oc2ccc(CCCC(=O)N3CCN(c4cc5c(cc4F)C(=O)N(C4CCC(=O)NC4=O)C5=O)CC3)cc2)cccc1-c1ccc(N2CCc3cccc(C(=O)Nc4nc5ccccc5s4)c3C2)nc1C(=O)O` (stereo not drawn) [Compound 119, 6-(8-(benzo[d]thiazol-2-ylcarbamoyl)-3,4-dihydroisoquinolin-2(1H)-yl)-3-(3-(4-(4-(4-(2-(2,6-dioxopiperidin-3-yl)-6-fluoro-1,3-dioxoisoindolin-5-yl)piperazin-1-yl)-4-oxobutyl)phenoxy)-2-methylphenyl)picolinic acid], the “Ymin (6 h)” value is “C (Ymin ≥ 70%)” and the “Ymin (24 h)” value is “B (50% ≤ Ymin < 70%)”.
